Source: patent US20230040770A1, “HETEROCYCLIC COMPOUND AND USE THEREOF” (TAKEDA PHARMACEUTICAL COMPANY LIMITED, priority 2019, published 2023)

Molecular target: T1, human orexin type 2 receptor (Homo sapiens, UniProt O43614)
T1 construct: expressed in transfected cells
T1 sequence (O43614 1-444): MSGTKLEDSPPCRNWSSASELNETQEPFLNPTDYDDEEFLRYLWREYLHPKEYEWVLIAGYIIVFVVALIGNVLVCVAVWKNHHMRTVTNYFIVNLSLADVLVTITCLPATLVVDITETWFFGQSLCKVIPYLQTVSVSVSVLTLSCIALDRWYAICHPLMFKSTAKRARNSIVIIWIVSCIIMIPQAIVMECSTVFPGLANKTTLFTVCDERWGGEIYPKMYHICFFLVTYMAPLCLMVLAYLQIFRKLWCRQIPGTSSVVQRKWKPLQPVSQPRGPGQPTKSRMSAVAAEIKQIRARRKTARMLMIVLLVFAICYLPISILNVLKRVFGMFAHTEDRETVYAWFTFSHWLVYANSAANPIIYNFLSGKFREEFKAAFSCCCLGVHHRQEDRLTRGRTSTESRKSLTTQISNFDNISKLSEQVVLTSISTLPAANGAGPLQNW
Assay: Measurement of orexin type 2 receptor agonist activity (calcium indicator fluorescence, CHO cells forcibly expressing human OX2 receptor)
Type: cell-based
Settings: compound at 3 μM; 0% = DMSO, 100% = orexin A (human) 10 nM
Outline: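 Agonist response normalised between vehicle (0%) and orexin A at 10 nM final (100%), from kinetic Fluo-4 calcium signals recorded for about 2 min after compound addition. Cells: stable human OX2R CHO clone, dye-loaded 30 min at 37 °C plus 30 min at room temperature.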

| OX2R agonist activity (3 μM, %) [%] | Structure (SMILES) |
| --- | --- |
| 90 | CCS(=O)(=O)N[C@H]1[C@@H](F)CN(C(=O)C2CCO2)[C@H]1Cc1cccc(-c2cccc(Cl)c2F)c1F (stereo partly drawn) [Example 423, N-[(2S,3R,4S)-2-[(3′-chloro-2,2′-difluoro[1,1′-biphenyl]-3-yl)methyl]-4-fluoro-1-(oxetane-2-carbonyl)pyrrolidin-3-yl]ethanesulfonamide] |
| 95 | O=C(N1CC(F)(F)[C@H](NS(=O)(=O)C2CC2)[C@@H]1Cc1cccc(-c2cccc(F)c2F)c1F)C1(O)CCC1 [Example 424, N-{(2S,3R)-4,4-difluoro-1-(1-hydroxycyclobutane-1-carbonyl)-2-[(2,2′,3′-trifluoro[1,1′-biphenyl]-3-yl)methyl]pyrrolidin-3-yl}cyclopropanesulfonamide] |
| 95 | Cc1cccc(-c2cccc(C[C@H]3[C@@H](NS(=O)(=O)C4CC4)C(F)(F)CN3C(=O)N(C)C)c2F)c1 [Example 425, (2S,3R)-3-[(cyclopropanesulfonyl)amino]-4,4-difluoro-2-[(2-fluoro-3′-methyl[1,1′-biphenyl]-3-yl)methyl]-N,N-dimethylpyrrolidine-1-carboxamide] |
| 90 | Cc1cccc(-c2cccc(C[C@H]3[C@@H](NS(=O)(=O)C4CC4)C(F)(F)CN3C(=O)N3CCC3)c2F)c1 [Example 426, N-{(2S,3R)-1-(azetidine-1-carbonyl)-4,4-difluoro-2-[(2-fluoro-3′-methyl[1,1′-biphenyl]-3-yl)methyl]pyrrolidin-3-yl}cyclopropanesulfonamide] |
| 99 | Cc1cccc(-c2cccc(C[C@H]3[C@@H](NS(=O)(=O)N(C)C)C(F)(F)CN3C(=O)C3(O)CCC3)c2F)c1 [Example 427, N′-[(2S,3R)-4,4-difluoro-2-[(2-fluoro-3′-methyl[1,1′-biphenyl]-3-yl)methyl]-1-(1-hydroxycyclobutane-1-carbonyl)pyrrolidin-3-yl]-N,N-dimethylsulfuric diamide] |
| 100 | Cc1cccc(-c2cccc(C[C@H]3[C@@H](NS(=O)(=O)C4CC4)C(F)(F)CN3C(=O)C3CCO3)c2F)c1 (stereo partly drawn) [Example 428, N-[(2S,3R)-4,4-difluoro-2-[(2-fluoro-3′-methyl[1,1′-biphenyl]-3-yl)methyl]-1-(oxetane-2-carbonyl)pyrrolidin-3-yl]cyclopropanesulfonamide] |
| 96 | Cc1cccc(-c2cccc(C[C@H]3[C@@H](NS(=O)(=O)C4CC4)C(F)(F)CN3C(=O)C3(O)CCC3)c2F)c1 [Example 430, N-[(2S,3R)-4,4-difluoro-2-[(2-fluoro-3′-methyl[1,1′-biphenyl]-3-yl)methyl]-1-(1-hydroxycyclobutane-1-carbonyl)pyrrolidin-3-yl]cyclopropanesulfonamide] |
| 106 | CS(=O)(=O)N[C@@H]1[C@H](Cc2cccc(-c3cc(F)cc(F)c3)c2F)N(C(=O)[C@H]2C[C@H](F)C2)CC1(F)F [Example 431, N-{(2S,3R)-4,4-difluoro-1-((1r,3S)-3-fluorocyclobutane-1-carbonyl)-2-[(2,3′,5′-trifluoro[1,1′-biphenyl]-3-yl)methyl]pyrrolidin-3-yl}methanesulfonamide] |
| 95 | Cc1cccc(-c2cccc(C[C@H]3[C@@H](NS(=O)(=O)N(C)C)C(F)(F)CN3C(=O)C3CCO3)c2F)c1 (stereo partly drawn) [Example 432, N′-[(2S,3R)-4,4-difluoro-2-[(2-fluoro-3′-methyl[1,1′-biphenyl]-3-yl)methyl]-1-(oxetane-2-carbonyl)pyrrolidin-3-yl]-N,N-dimethylsulfuric diamide] |
| 101 | Cc1cccc(-c2cccc(C[C@H]3[C@@H](NS(=O)(=O)N(C)C)C(F)(F)CN3C(=O)C3CCO3)c2F)c1 (stereo partly drawn) [Example 434, N′-[(2S,3R)-4,4-difluoro-2-[(2-fluoro-3′-methyl[1,1′-biphenyl]-3-yl)methyl]-1-(oxetane-2-carbonyl)pyrrolidin-3-yl]-N,N-dimethylsulfuric diamide] |
| 88 | CS(=O)(=O)N[C@@H]1[C@H](Cc2cccc(-c3cccc(F)c3F)c2F)N(C(=O)C2CC(F)C2)CC1(F)F (stereo partly drawn) [Example 435, N-{(2S,3R)-4,4-difluoro-1-(3-fluorocyclobutane-1-carbonyl)-2-[(2,2′,3′-trifluoro[1,1′-biphenyl]-3-yl)methyl]pyrrolidin-3-yl}methanesulfonamide] |
| 92 | CS(=O)(=O)N[C@@H]1[C@H](Cc2cccc(-c3cccc(F)c3F)c2F)N(C(=O)C2CC(F)C2)CC1(F)F (stereo partly drawn) [Example 436, N-{(2S,3R)-4,4-difluoro-1-(3-fluorocyclobutane-1-carbonyl)-2-[(2,2′,3′-trifluoro[1,1′-biphenyl]-3-yl)methyl]pyrrolidin-3-yl}methanesulfonamide] |
| 84 | CS(=O)(=O)N[C@@H]1[C@H](Cc2cccc(-c3cc(F)ccc3F)c2F)N(C(=O)C2CC(F)C2)CC1(F)F (stereo partly drawn) [Example 437, N-{(2S,3R)-4,4-difluoro-1-(3-fluorocyclobutane-1-carbonyl)-2-[(2,2′,5′-trifluoro[1,1′-biphenyl]-3-yl)methyl]pyrrolidin-3-yl}methanesulfonamide] |
| 95 | CN(C)S(=O)(=O)N[C@@H]1[C@H](Cc2cccc(-c3cccc(F)c3F)c2F)N(C(=O)C2(O)CCC2)CC1(F)F [Example 438, N′-{(2S,3R)-4,4-difluroo-1-(1-hydroxycyclobutane-1-carbonyl)-2-[(2,2′,3′-trifluoro[1,1′-biphenyl]-3-yl)methyl]pyrrolidin-3-yl}-N,N-dimethylsulfuric diamide] |
| 93 | CS(=O)(=O)N[C@@H]1[C@H](Cc2cccc(-c3cc(F)ccc3F)c2F)N(C(=O)C2CC(F)C2)CC1(F)F (stereo partly drawn) [Example 439, N-{(2S,3R)-4,4-difluoro-1-(3-fluorocyclobutane-1-carbonyl)-2-[(2,2′,5′-trifluoro[1,1′-biphenyl]-3-yl)methyl]pyrrolidin-3-yl}methanesulfonamide] |
| 94 | CS(=O)(=O)N[C@@H]1[C@H](Cc2cccc(-c3ccccc3)c2F)N(C(=O)C2CC(F)C2)CC1(F)F (stereo partly drawn) [Example 440, N-[(2S,3R)-4,4-difluoro-2-[(2-fluoro[1,1′-biphenyl]-3-yl)methyl]-1-(3-fluorocyclobutane-1-carbonyl)pyrrolidin-3-yl]methanesulfonamide] |
| 93 | CS(=O)(=O)N[C@@H]1[C@H](Cc2cccc(-c3ccccc3)c2F)N(C(=O)C2CC(F)C2)CC1(F)F (stereo partly drawn) [Example 441, N-[(2S,3R)-4,4-difluoro-2-[(2-fluoro[1,1′-biphenyl]-3-yl)methyl]-1-(3-fluorocyclobutane-1-carbonyl)pyrrolidin-3-yl]methanesulfonamide] |
| 96 | Cc1cccc(-c2cccc(C[C@H]3[C@@H](NS(=O)(=O)N(C)C)C(F)(F)CN3C(=O)N(C)C)c2F)c1 [Example 442, (2S,3R)-3-[(dimethylsulfamoyl)amino]-4,4-difluoro-2-[(2-fluoro-3′-methyl[1,1′-biphenyl]-3-yl)methyl]-N,N-dimethylpyrrolidine-1-carboxamide] |
| 98 | CCS(=O)(=O)N[C@@H]1[C@H](Cc2cccc(-c3cc(C)cc(F)c3)c2F)N(C(=O)N2CCC2)CC1(F)F [Example 444, N-{(2S,3R)-1-(azetidine-1-carbonyl)-2-[(2,3′-difluoro-5′-methyl[1,1′-biphenyl]-3-yl)methyl]-4,4-difluoropyrrolidin-3-yl}ethanesulfonamide] |
